# Like-named read-outs stand apart in the source and are kept apart here.
# Key:
# [1] = system: mammalian cell lines; settings: cited from earlier work
# [2] = system: HEK293 cells; test: HEK293 Alamar Blue viability estimation assay; assay type: cell-based, human; settings: pentamidine 1 µM, diminazene 40 µM
# Description: (§1) T.b. brucei lister 427 cells were maintained in log phase growth in 25 cm^2 tissue culture flasks (Corning, NY, USA) by sub-culturing at either 24 or 48 hour intervals. Cells were grown in HMI-9 medium, supplemented with 10% fetal calf serum (FCS) and 100 IU/ml penicillin/streptomycin (Invitrogen, Carlsbad, California, USA) with incubation at 5% CO2 at 37°C in humidified conditions. HEK293 cells were maintained in high glucose DMEM with L-glutamine, supplemented with 1× non-essential amino acids (NEAA; Invitrogen, USA) and 1 mM sodium pyruvate. Growth conditions were in 5% CO2 at 37°C, under humidified conditions.
# Cells at 80% confluence were harvested and diluted in growth medium (high glucose DMEM supplemented with 10% FCS) to 7.27×10^4 cells/ml. Under sterile conditions, 55 µl of diluted cells per well were added to a black, clear bottomed 384-well lidded plate (BD Biosciences, Bedford, MA, USA) with a Multidrop liquid handler (Thermo Scientific, Barrington, IL, USA). Incubation times, compound additions and plate read were as per the trypanosome viability assay, with the exception that Alamar Blue was diluted in HEK293 growth media before addition, and incubation of Alamar Blue at 37°C, in 5% CO2, was for 4 hours, followed by incubation at room temperature for 20 hours. The activity of compounds against HEK293 cells was used to calculate the SI of mammalian to T.b. brucei cells. The control compound for HEK293 cells was puromycin (Calbiochem, USA).
# Compounds identified from primary screening were retested against both T.b. brucei and HEK293 cells in duplicate and at varying concentrations to obtain a dose-response curve. Thus, a 5 µl sample of fresh compound stock solution (5 mM in DMSO) was cherry picked into 384-well plates and diluted 1∶10 in dilution medium (high glucose DMEM without FCS). Serial dilutions of these samples were then prepared in the same media by a Minitrak robotic liquid handler (Perkin Elmer, USA). […] A screening dose of 10.4 µM was included in the dilution series to enable reconfirmation of primary screening T.b. brucei activity.
# The DMSO working concentration in the serial dilutions was maintained at 5%, giving a final assay concentration of 0.42% DMSO, except for the 41.7 µM test compound solution, where as previously stated the corresponding DMSO concentration was 0.83% v/v. […] Therefore the 41.7 µM test compound sample with 0.83% v/v DMSO was not used in the T.b. brucei assay and thus the top test compound concentration in this assay was 20.8 µM.
# Compound activity in the retest campaign was calculated as percentage inhibition in relation to positive and negative controls, in the same manner as the primary screening campaign. The positive controls, pentamidine (2 µM final concentration) for T.b. brucei and puromycin (8 µM final concentration) for HEK293, were both screened in whole 384-well control plates. Whole 384-well plate controls were included after every batch of 20 compound plates, and were comprised of half a plate of negative control and half a plate of positive control. The negative control was the vehicle, […]. The negative control was also included in column 24 of each compound assay plate to determine signal variation from plate to plate and to calculate compound activity. The exception was the 41.7 µM compound dose used in the HEK293 assay. In these plates column 24 contained 0.83% DMSO as a negative control. A separate 384-well plate containing a 13 point dose-response of the reference compounds puromycin, pentamidine and diminazene, in triplicate, was also included per 20 compound test plate batch to estimate assay sensitivity.
# These compounds were retested as in dose for N of three replicates, as described above for both T.b. brucei and HEK293.
# [3] = system: T.b. brucei bloodstream form lister 427; test: T.b. brucei Alamar Blue viability estimation assay (384-well HTS, retest and rescreen); assay type: cell-based, Trypanosoma brucei brucei; settings: for IC50: Trypanosoma brucei
# Description: as §1
# All reagent and cell additions were made with a Multidrop liquid handler (Thermo Scientific, Newington, NH, USA) under sterile conditions. Fifty-five microliters of 2000 cells/mL of T.b. brucei in HMI-9 medium were added to a black, clear-bottomed 384-well lidded plate (BD Biosciences, Franklin Lanes, NJ, USA). Cells were incubated for 24 hours at 37°C in an atmosphere of 5% CO2 before addition of 5 µl of compounds/DMSO for control wells. Compounds suspended in 100% DMSO or 100% DMSO as controls were pre-diluted 1∶21 in high glucose DMEM without FCS by using a Minitrack robotic liquid handler (PerkinElmer, Waltham, MA, USA). Five microliters of diluted sample was added to the plate to give a final DMSO concentration of 0.417% in the assay. Cells were incubated for an additional 48 hours at 37°C. Ten microliters of 70% Alamar Blue (Biosource, Bethesda, MD, USA) was added to each well (diluted in HMI-9 medium supplemented with 10% FCS) to a final concentration of 10% in the assay. The plate was incubated for two hours under the same conditions, then incubated for 22 hours in the dark at room temperature. Wells were read at 535 nm (excitation) and 590 nm (emission) wavelengths on a Victor II Wallac plate reader (PerkinElmer, USA). Specific dilutions are explained further in the primary and retest assay methodology. Reference drugs used in the assay were pentamidine (Sigma-Aldrich, St Louis, MO, USA), diminazene aceturate (Sigma-Aldrich, USA) and puromycin (Calbiochem, San Deigo, CA, USA). Pentamidine is used to treat patients with HAT and diminazene is a veterinary drug used against T.b. brucei to combat infections in cattle.
# Primary screening of the library, consisting of 87,296 compounds in two hundred and forty eight 384-well plates, was undertaken in single point against T.b. brucei. Stock solutions consisted of test compound at a concentration of 5 mM in 100% DMSO. One µl of each compound stock solution was diluted by the addition of 40 µl of dilution medium (high glucose DMEM without FCS) by a multidrop liquid handler (Thermo Scientific, USA). A 5 µl sample of this diluted solution was then added to the trypanosome assay plate. The final concentration of test compound in the assay was […] and that of DMSO was 0.42% v/v. Compounds were screened over a total of 11 days, at an average of 80 plates per day, taking into consideration that the assay incubation was 3 days total. Test compounds were added to plates in batches of 20 at two hour intervals, to maintain the timing of additions and reads.
# Compound activity was calculated as the percentage inhibition in relation to positive and negative controls. […] These in-plate negative controls were used in an effort to normalise compound activity in relation to any plate to plate variation in the assay signal. A whole 384-well control plate was included in each day's screening, one per 20 compound plates containing half a plate of 2 µM pentamidine for the positive assay control, and half a plate of 0.42% v/v DMSO as a negative control. The positive assay control was used to calculate compound activity for batches of 20 compound plates. As well providing the positive control data, these whole plate controls were used for the calculation of the Z' to measure the reproducibility of the assay.
compound,measurement,setting,value
"N=C(N)c1ccc(/N=N/Nc2ccc(C(=N)N)cc2)cc1 [Diminazene, diminazene aceturate, reference compound]",reported SI,[1],692
same,"activity in the HEK293 assay at the doses screened, rescreening",[2],neither pentamidine nor diminazene displayed activity
same,"activity in the HEK293 assay at the doses screened, retest campaign",[2],Neither pentamidine nor diminazene displayed activity
same,Selectivity Index T.B,"[3]; HEK293 IC50 / T.b. brucei IC50, > if less than 50% activity at 75.8 µM in HEK293",>330
same,IC50,"[3]; 13 control plates, triplicate dose-response, read-out: IC50 of reference compounds, primary screening campaign",65.4 nM
same,IC50,"[3]; during rescreening of resynthesized compounds, read-out: Reference Compound Activity T.B (IC50)",121 ± 9.04 nM
same,IC50,"[3]; reference compounds, read-out: IC50 against T.b. brucei, retest screening campaign",29.5 ± 5.8 nM

# Reference: paper PMC3510080, “Identification of Compounds with Anti-Proliferative Activity against Trypanosoma brucei brucei Strain 427 by a Whole Cell Viability Based HTS Campaign” (PLoS Neglected Tropical Diseases, 2012)
